Source: publication PMC10388311, “Innovative Strategy toward Mutant CFTR Rescue in Cystic Fibrosis: Design and Synthesis of Thiadiazole Inhibitors of the E3 Ligase RNF5” (Journal of Medicinal Chemistry, 2023)
In brackets after ≈: the same amount, converted by molar mass.

Assays:
[1] = test system: ATG4B-mediated basal autophagy in F508del-CFTR-expressing CFBE41o– cells; test: Labeling of autophagic vacuoles with monodansylcadaverine (MDC); type: cell-based, human; details: test compounds 5 μM 24 h; torin-1 20 nM and SAR-405 2 μM in the last 3 h
Source text: To further support our hypothesis that CFTR rescue following treatment with test compounds was indeed due to RNF5 inhibition, we considered additional biological processes known to be regulated by RNF5 ligase activity. To this aim, we focused our attention on ATG4B, a known regulator of basal autophagy, whose degradation is mediated by RNF5 activity.[54]In vivo ubiquitination experiments previously confirmed that inh-2 inhibits ATG4B degradation, thus increasing the basal level of autophagy.[40] […] We thus evaluated the effect of inh-2 analogues on induction of the autophagy pathway. To this aim, we monitored the formation of autophagic vacuoles in F508del-CFTR-expressing CFBE41o^– cells (Figure 8) by using the autolysosome marker monodansylcadaverine (MDC). MDC accumulates inside autophagosomes. After fusion of autophagosomes with lysosomes, MDC fluorescence increases due to the acidic environment.[55] Therefore, F508del-CFTR-expressing CFBE41o^– cells were treated for 24 h with test compounds (5 μM), VX-809 (1 μM), or DMSO alone (vehicle). In the last 3 h of incubation, we added torin-1 (20 nM), a known autophagy inducer, and SAR-405 (2 μM), a potent inhibitor of the autophagic pathway. The cells were then loaded with MDC and evaluated by high-content confocal imaging to detect signal spots (corresponding to autophagic vacuoles) in each cell.
CFBE41o^– cells stably expressing F508del-CFTR and the HS-YFP were plated (50,000 cells/well) on good-quality clear-bottom 96-well black microplates suitable for high-content imaging. After 24 h, cells were treated with test compounds or DMSO (as the negative control). […] After 24 h, cells were incubated with 50 μM MDC (Sigma-Aldrich) in PBS at 37 °C for 10 min.[62] After incubation, cells were washed three times with PBS and immediately analyzed. High-content imaging and data analysis were performed using the Opera Phenix (PerkinElmer) high-content screening system. Wells were imaged in confocal mode using a 40× water-immersion objective. The MDC signal was laser-excited at 405 nm, and the emission wavelengths were collected between 435 and 550 nm. Data analysis of MDC spot number was performed using the Harmony software (ver 4.5) of the Opera Phenix high-content system. Data are expressed as means ± SEM, n = 3 independent experiments. Statistical significance was tested by parametric ANOVA followed by the Dunnet multiple comparisons test (all groups against the control group).

[2] = target: F508del-CFTR in CFBE41o– cells (Homo sapiens, UniProt Q99942); test: HS-YFP microfluorimetric assay of F508del-CFTR rescue (corrector activity); type: cell-based; details: CFBE41o– cells co-expressing F508del-CFTR and HS-YFP, 24 h treatment, Figure 5
Sequence of F508del-CFTR in CFBE41o– cells (Q99942 2-180): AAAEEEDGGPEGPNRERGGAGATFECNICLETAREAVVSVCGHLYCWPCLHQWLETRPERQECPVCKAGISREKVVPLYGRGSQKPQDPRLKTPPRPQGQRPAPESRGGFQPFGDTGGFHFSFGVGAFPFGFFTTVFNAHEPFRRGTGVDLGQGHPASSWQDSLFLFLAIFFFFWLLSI
Sequence of F508del-CFTR in CFBE41o– cells (P13569 with tags, fused parts or gaps DEL508-508 partner): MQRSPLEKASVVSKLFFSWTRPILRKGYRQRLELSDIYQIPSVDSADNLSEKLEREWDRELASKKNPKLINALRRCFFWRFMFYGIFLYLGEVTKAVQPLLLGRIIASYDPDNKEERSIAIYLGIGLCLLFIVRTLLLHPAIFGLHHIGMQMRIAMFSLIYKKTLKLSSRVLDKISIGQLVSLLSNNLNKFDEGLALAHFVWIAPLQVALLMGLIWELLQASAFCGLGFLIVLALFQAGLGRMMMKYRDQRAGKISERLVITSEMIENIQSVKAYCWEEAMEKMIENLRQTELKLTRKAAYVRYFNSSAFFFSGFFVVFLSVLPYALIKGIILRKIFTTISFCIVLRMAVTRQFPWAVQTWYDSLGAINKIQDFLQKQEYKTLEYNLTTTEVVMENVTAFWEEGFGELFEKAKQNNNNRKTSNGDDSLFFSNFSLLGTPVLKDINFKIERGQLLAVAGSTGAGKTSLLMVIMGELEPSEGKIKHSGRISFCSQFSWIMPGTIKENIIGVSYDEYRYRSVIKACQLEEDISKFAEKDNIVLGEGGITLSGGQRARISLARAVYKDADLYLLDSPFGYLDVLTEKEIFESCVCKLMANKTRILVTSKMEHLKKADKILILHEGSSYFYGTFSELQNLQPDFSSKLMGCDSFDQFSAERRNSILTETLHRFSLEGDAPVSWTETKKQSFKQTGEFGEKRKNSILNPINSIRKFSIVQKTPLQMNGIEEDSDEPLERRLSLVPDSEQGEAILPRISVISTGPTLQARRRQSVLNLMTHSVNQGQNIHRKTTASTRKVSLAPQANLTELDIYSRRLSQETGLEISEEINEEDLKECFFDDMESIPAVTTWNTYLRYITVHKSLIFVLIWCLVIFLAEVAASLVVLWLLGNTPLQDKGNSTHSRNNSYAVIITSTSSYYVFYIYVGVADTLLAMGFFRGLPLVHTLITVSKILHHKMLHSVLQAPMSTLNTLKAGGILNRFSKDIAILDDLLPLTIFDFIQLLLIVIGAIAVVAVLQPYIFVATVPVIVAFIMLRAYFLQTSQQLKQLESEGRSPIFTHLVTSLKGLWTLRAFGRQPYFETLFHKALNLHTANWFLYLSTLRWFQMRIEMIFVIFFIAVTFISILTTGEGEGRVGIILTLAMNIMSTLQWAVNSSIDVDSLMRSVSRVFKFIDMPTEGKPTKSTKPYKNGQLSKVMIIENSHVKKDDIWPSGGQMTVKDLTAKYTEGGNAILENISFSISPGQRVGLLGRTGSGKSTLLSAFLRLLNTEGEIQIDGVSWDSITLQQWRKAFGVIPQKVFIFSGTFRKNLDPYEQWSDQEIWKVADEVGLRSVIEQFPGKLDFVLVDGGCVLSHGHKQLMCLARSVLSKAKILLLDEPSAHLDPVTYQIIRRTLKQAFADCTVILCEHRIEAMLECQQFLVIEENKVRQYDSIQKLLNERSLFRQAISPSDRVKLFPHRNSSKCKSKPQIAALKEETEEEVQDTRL
Procedure: As a primary screen, the new thiadiazole derivatives 1–46 (Table 1) were tested for their ability to rescue the F508del-CFTR trafficking defect in CFBE41o^– cells, stably co-expressing F508del-CFTR and the HS-YFP (Figure 5). This cell line has been extensively used by our group, in combination with the microfluorimetric assay based on the HS-YFP, to identify and characterize many CFTR correctors.[39],[47] This assay relies on the hypothesis that RNF5 inhibition results in increased mutant CFTR processing and activity. Therefore, it can easily identify putative RNF5 inhibitors, but not other types of RNF5-binding compounds that could have no effect or have a negative effect on CFTR function, such as RNF5 activators (see analog-1). Thus, we opted for this assay as our primary aim was the identification of RNF5 inhibitors as a possible therapeutic strategy in CF. Twenty-four hours after seeding on 96-well plates, CFBE41o^– cells stably expressing F508del-CFTR and the HS-YFP were treated with test compounds at the desired concentration, one compound per well. Cells treated with vehicle alone (DMSO) and with corrector VX-809 (1 μM), respectively, served as negative and positive controls. At the time of the assay, cells were washed with PBS containing (in […]) 137 NaCl, 2.7 KCl, 8.1 Na2HPO4, 1.5 KH2PO4, 1 CaCl2, and 0.5 MgCl2. Cells were then incubated for 25 min with […] of PBS plus forskolin (20 μM) and VX-770 (1 μM) to maximally stimulate F508del-CFTR. Cells were then transferred to a microplate reader (FluoStar Galaxy; BMG Labtech, Offenburg, Germany) for CFTR activity determination. The plate reader was equipped with high-quality excitation (HQ500/20X: 500 ± 10 nm) and emission (HQ535/30M: 535 ± 15 nm) filters for YFP (Chroma Technology). Each assay comprised a continuous 14 s fluorescence reading and 2 s before and 12 s after injection of […] of an iodide-containing solution (PBS with Cl^– replaced by I^–; final I^– concentration […]). Data were normalized to the initial background-subtracted fluorescence. To determine the I^– influx rate, the final 11 s of the data for each well was fitted with an exponential function to extrapolate initial slope (dF/dt). Reproducibility of results was confirmed by performing three independent experiments. CFBE41o^– cells co-expressing F508del-CFTR and the HS-YFP were reverse-transfected with 50 nM (final concentration) siRNAs (Stealth, Life Technologies) in the presence of lipofectamine 2000 as a transfection agent. The following day, the medium was changed, and the cells were incubated at 37 °C for additional 24 h treated with test compounds at the desired concentration, prior to processing the cells for the YFP-based functional assay.

[3] = Solubility and aggregation in PBS buffer by NMR (SPAM filter, 1H 1D and WaterLOGSY); type: physicochemical; details: PBS pH 7.5, 1 μM ZnCl2, 1 mM DTT, 10% D2O, 1% DMSO-d6; for solubility: PBS buffer, aqueous buffer, kinetic from dmso stock, theoretical concentration 20 μM, read-out: solubility in PBS buffer by NMR, 20 μM; for aggregation in PBS buffer by NMR: WaterLOGSY
Source text: Under these circumstances, it was decided to explore the solubility of all the synthetized compounds, regardless of their biological activities, to find a suitable candidate for the validation of our working hypothesis, i.e., that the compounds exert their activities by directly binding to RNF5. For that, we first calculated the predicted octanol/water partition coefficient (log Po/w) and the predicted aqueous solubility (log S) of all the analogues by QikProp (Schrödinger Release 2022-1: QikProp, Schrödinger, LLC, New York, NY, 2021, Table S1). […] To shrink down the number of compounds for solubility experiments, just the ones that had −2.0 < log Po/w < 6 and −6.5 < log S <0.5 values were selected. Among them, the PBS solubility was determined for five representative analogues: (i) 12 and 29 bearing different substituents on the benzyl group A; (ii) 34 and 40 showing the replacement of rings B and C with pyridine-4-yl moieties; (iii) 42 in which the N-phenylbenzamidine portion was replaced with a pyridine-2-yl moiety (Table 1).
All the NMR experiments were recorded at 298 K using a 5 mm CryoProbe QCI ^1H/^19F–^13C/^15N–D quadruple resonance, a shielded z-gradient coil, and an automatic sample changer SampleJet NMR system with temperature control. The solubility of the compounds were evaluated by ^1H 1D experiments and aggregation by WaterLOGSY, testing the compounds in buffer PBS pH 7,5, 1 μM ZnCl2, 1 mM DTT, 10% D2O (for the lock signal), and 1% DMSO-d6 at the theoretical concentrations of 20, 50, and 100 μM in the presence of 200 μM 4-trifluoromethyl benzoic acid (internal reference). For all samples, a 1D ^1H NMR experiment was recorded, the water suppression was obtained using the standard NOESY (nuclear Overhauser effect spectroscopy) preset Bruker pulse sequence, with 64k data points, a spectral width (sw) of 30 ppm, 64 scans, acquisition time (aq) of 1.835 s, a relaxation delay (d1) of 4 s, and a mixing time of 10 ms. […] The data were multiplied by an exponential window function with 1 Hz line broadening prior to Fourier transformation. For NMR binding experiments, the compounds were tested at 50 μM in buffer PBS pH 7.5, 1 μM ZnCl2, 1 mM DTT, 10% D2O (for the lock signal), and 1% DMSO-d6 in the absence and in the presence of 3 μM RNF5. WaterLOGSY experiments were recorded with the same parameters used in solubility assays, but with a higher number of scans (512); STD experiments were recorded with 128 scans, with two on (0.7 and 1 ppm) and one off (−50 ppm) resonance spectra, a Gaussian-shaped train pulse of 50 ms each was employed, with a total saturation time of the protein envelope of 5, 3, 2, 1.5, 1, or 0.5 s. A T1ρ filter of 2 ms was employed in STD experiments to eliminate the background signals from the protein. The STD spectrum was obtained by subtraction of the on-resonance spectrum from the off-resonance spectrum. Subtraction was performed by phase cycling to minimize artifacts arising from magnet and temperature instabilities.

Row | SMILES | F508del-CFTR corrector activity compared with inh-2 (CFTR activity, primary screen) [2] | solubility [3] [µM] | aggregation in PBS buffer by NMR [3] | solubility at 50 µM ([3]; theoretical concentration 50 μM) [µM] | solubility at 100 µM ([3]; theoretical concentration 100 μM) [µM] | number of autophagic vacuoles (MDC signal spots) [1]
1 | CCC(=O)N1CCN(c2ccc(-n3c(=O)ccc4cnc5ccc(-c6cnc7ccccc7c6)cc5c43)cc2C(F)(F)F)CC1 [torin-1, reference compound] |  |  |  |  |  | significantly increased
2 | CNc1cccc(Cn2c(C)ns/c2=N\C(=N\c2ccccc2)c2ccccc2)c1 [Compound 21, (E)-N-((Z)-3-Methyl-4-(3-(methylamino)benzyl)-1,2,4-thiadiazol-5(4H)-ylidene)-N′-phenylbenzimidamide] | did not affect the activity |  |  |  |  | significantly increased
3 | C[C@@H]1COCCN1c1cc(=O)n2c(n1)N(Cc1cncc(Cl)c1)[C@H](C(F)(F)F)CC2 [SAR-405, reference compound] |  |  |  |  |  | significantly decreased
4 | Cc1ns/c(=N\C(=N\c2ccccc2)c2ccccc2)n1Cc1ccc(F)cc1 [Compound 9, (E)-N-((Z)-4-(4-Fluorobenzyl)-3-methyl-1,2,4-thiadiazol-5(4H)-ylidene)-N′-phenylbenzimidamide] | maintained the activity unaltered |  |  |  |  | significantly decreased
5 | Cc1ns/c(=N\C(=N\c2ccccc2)c2ccccc2)n1Cc1ccc(Br)cc1 [Compound 11, (E)-N-((Z)-4-(4-Bromobenzyl)-3-methyl-1,2,4-thiadiazol-5(4H)-ylidene)-N′-phenylbenzimidamide] | maintained the activity unaltered |  |  |  |  | significantly increased
6 | Cc1ns/c(=N\C(=N\c2ccccc2)c2ccccc2)n1Cc1ccccc1N [Compound 29, (E)-N-((Z)-4-(2-Aminobenzyl)-3-methyl-1,2,4-thiadiazol-5(4H)-ylidene)-N′-phenylbenzimidamide] | comparable activity to the unsubstituted original hit inh-2 | < 5 | no | <5 | <5 | 
7 | Cc1ns/c(=N\C(=N\c2ccccc2)c2ccccc2)n1Cc1cccc(C(F)(F)F)c1 [Compound 15, (E)-N-((Z)-3-Methyl-4-(3-(trifluoromethyl)benzyl)-1,2,4-thiadiazol-5(4H)-ylidene)-N′-phenylbenzimidamide] | decreased potency |  |  |  |  | 

Second part, led by results:

Row | F508del-CFTR corrector activity compared with inh-2 (CFTR activity, primary screen) [2] | solubility [3] [µM] | aggregation in PBS buffer by NMR [3] | solubility at 50 µM ([3]; theoretical concentration 50 μM) [µM] | solubility at 100 µM ([3]; theoretical concentration 100 μM) [µM] | SMILES | number of autophagic vacuoles (MDC signal spots) [1]
8 | maintaining the activity equal to inh-2 | 10 (≈ 3.85 µg/mL) | no |  |  | Cc1ns/c(=N\C(=N\c2ccccc2)c2ccncc2)n1Cc1ccccc1 [Compound 34, (E)-N-((Z)-4-Benzyl-3-methyl-1,2,4-thiadiazol-5(4H)-ylidene)-N′-phenylisonicotinimidamide] | significantly decreased
9 | slight increase in activity |  |  |  |  | Cc1ccccc1Cn1c(C)ns/c1=N\C(=N\c1ccccc1)c1ccccc1 [Compound 25, (E)-N-((Z)-3-Methyl-4-(2-methylbenzyl)-1,2,4-thiadiazol-5(4H)-ylidene)-N′-phenylbenzimidamide] | 
